According to patent US20140120083A1, “TREATMENT OF CANCERS USING PI3 KINASE ISOFORM MODULATORS” (INFINITY PHARMACEUTICALS, INC., priority 2012, published 2014):

How the values were obtained:
Assay type in all cases: biochemical
[1] = biological target: T1, PI3K γ (Homo sapiens, UniProt P48736); assay: In vitro IC50, PI3K γ
T1 construct: purchased Sigma
Excerpt: (§1) An exemplary system is PI 3-Kinase (human) HTRF™ Assay from Upstate.

[2] = biological target: T2, PI3K α (Homo sapiens, UniProt P42336); assay: In vitro IC50, PI3K α
T2 construct: purchased Upstate
Excerpt: as §1

[3] = biological target: PI3K β (Homo sapiens, UniProt P42338); assay: In vitro IC50, PI3K β
Excerpt: as §1

[4] = biological target: PI3K δ (Homo sapiens, UniProt O00329); assay: In vitro IC50, PI3K δ; set-up: purchased Upstate
Excerpt: as §1

PI3K β, sequence (P42338 whole entry): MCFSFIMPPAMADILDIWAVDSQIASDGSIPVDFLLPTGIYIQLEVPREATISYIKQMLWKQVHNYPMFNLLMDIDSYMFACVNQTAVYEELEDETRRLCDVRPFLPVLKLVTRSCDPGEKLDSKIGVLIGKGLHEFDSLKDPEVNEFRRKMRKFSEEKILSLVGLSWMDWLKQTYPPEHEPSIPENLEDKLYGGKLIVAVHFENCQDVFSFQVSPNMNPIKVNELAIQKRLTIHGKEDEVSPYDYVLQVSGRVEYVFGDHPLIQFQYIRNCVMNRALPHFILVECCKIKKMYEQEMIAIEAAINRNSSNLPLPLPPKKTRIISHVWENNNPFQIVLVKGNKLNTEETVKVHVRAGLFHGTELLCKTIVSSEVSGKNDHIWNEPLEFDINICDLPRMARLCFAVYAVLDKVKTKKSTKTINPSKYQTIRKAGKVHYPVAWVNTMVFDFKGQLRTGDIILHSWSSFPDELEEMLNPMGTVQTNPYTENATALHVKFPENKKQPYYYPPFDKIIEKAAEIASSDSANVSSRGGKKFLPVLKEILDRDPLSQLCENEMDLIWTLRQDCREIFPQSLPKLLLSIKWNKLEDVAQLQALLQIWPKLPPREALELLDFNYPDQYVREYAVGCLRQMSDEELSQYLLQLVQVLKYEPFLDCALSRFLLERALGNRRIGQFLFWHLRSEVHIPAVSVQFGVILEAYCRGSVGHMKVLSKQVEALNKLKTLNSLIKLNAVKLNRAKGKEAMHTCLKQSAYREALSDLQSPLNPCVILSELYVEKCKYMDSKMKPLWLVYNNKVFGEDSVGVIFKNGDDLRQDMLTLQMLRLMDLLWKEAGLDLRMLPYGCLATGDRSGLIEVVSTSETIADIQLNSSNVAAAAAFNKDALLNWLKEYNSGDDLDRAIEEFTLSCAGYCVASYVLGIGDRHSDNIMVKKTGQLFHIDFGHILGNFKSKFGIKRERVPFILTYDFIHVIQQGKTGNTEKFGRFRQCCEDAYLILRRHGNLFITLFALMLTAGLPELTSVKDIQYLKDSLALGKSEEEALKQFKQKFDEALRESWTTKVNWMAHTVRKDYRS
T2 sequence (P42336 whole entry): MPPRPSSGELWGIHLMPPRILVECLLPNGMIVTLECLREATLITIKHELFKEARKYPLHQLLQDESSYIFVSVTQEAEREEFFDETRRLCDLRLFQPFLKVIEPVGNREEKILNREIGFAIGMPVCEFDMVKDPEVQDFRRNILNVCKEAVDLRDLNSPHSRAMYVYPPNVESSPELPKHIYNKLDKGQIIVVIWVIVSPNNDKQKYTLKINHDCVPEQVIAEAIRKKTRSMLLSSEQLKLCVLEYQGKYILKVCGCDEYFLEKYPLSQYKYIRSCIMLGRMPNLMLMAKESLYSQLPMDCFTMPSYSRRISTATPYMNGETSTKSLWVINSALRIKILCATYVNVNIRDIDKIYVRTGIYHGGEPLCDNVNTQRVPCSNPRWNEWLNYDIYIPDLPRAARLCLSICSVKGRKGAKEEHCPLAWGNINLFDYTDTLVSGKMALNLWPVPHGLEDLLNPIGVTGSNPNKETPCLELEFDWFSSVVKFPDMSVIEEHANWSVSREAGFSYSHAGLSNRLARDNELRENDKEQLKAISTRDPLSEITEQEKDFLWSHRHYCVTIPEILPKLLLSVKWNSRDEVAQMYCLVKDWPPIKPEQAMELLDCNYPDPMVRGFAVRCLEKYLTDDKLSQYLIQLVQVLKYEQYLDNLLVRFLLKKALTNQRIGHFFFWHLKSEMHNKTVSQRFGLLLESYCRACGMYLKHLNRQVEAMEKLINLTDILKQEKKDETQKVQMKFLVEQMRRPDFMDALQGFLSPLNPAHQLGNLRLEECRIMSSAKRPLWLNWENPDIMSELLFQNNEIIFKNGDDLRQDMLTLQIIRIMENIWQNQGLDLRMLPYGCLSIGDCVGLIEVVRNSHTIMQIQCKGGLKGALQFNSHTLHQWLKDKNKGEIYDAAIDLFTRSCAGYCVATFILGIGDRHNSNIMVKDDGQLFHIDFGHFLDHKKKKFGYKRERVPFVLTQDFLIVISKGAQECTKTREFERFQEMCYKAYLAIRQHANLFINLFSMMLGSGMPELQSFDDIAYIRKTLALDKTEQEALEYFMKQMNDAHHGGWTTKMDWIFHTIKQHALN
T2 sequence (P27986 whole entry partner): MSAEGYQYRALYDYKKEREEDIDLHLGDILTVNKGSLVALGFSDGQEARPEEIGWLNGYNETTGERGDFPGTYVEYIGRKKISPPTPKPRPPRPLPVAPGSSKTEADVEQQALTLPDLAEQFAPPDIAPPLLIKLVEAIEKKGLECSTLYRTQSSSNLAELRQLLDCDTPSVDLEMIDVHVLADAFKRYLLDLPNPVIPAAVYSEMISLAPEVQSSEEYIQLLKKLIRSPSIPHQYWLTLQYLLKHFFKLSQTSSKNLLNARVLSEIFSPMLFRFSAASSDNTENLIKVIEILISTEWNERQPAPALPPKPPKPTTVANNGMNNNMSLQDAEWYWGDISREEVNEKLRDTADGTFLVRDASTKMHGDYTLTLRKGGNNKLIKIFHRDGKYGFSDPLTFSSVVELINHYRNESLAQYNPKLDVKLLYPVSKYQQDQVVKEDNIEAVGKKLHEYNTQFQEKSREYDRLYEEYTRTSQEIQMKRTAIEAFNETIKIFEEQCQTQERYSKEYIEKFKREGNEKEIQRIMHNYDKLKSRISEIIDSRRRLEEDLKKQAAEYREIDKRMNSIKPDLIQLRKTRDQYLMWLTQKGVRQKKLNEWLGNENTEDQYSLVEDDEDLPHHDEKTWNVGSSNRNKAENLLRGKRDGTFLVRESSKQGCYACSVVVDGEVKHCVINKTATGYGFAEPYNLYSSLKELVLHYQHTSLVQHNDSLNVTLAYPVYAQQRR
PI3K δ, sequence (O00329 whole entry): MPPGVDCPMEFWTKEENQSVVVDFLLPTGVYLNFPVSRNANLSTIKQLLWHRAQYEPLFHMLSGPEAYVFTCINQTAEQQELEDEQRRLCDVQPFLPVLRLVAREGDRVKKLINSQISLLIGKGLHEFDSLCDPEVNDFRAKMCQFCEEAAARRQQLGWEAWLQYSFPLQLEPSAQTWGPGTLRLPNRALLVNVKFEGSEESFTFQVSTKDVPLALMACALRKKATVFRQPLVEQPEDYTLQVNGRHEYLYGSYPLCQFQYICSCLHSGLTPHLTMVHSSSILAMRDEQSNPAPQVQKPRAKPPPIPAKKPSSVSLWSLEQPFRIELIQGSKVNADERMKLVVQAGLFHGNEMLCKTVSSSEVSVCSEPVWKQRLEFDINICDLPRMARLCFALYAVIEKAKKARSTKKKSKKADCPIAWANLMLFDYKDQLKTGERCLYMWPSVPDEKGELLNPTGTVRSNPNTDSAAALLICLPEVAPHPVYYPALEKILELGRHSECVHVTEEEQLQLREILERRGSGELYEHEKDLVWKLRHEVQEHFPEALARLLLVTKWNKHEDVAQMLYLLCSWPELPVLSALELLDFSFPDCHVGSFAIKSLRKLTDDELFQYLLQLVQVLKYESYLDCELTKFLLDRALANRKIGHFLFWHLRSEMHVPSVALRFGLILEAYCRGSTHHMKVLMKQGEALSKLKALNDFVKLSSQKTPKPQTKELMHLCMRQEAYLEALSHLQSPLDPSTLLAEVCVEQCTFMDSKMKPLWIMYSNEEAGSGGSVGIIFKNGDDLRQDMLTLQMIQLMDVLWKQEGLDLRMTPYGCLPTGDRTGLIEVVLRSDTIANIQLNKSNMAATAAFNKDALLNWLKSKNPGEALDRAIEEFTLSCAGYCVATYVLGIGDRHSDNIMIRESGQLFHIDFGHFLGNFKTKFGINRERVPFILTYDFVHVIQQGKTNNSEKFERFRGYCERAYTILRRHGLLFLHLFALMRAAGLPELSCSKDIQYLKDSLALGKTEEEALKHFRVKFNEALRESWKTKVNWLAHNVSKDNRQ
PI3K δ, sequence (P27986 whole entry partner): as the sequence (P27986 whole entry partner) above
T1 sequence (P48736 whole entry): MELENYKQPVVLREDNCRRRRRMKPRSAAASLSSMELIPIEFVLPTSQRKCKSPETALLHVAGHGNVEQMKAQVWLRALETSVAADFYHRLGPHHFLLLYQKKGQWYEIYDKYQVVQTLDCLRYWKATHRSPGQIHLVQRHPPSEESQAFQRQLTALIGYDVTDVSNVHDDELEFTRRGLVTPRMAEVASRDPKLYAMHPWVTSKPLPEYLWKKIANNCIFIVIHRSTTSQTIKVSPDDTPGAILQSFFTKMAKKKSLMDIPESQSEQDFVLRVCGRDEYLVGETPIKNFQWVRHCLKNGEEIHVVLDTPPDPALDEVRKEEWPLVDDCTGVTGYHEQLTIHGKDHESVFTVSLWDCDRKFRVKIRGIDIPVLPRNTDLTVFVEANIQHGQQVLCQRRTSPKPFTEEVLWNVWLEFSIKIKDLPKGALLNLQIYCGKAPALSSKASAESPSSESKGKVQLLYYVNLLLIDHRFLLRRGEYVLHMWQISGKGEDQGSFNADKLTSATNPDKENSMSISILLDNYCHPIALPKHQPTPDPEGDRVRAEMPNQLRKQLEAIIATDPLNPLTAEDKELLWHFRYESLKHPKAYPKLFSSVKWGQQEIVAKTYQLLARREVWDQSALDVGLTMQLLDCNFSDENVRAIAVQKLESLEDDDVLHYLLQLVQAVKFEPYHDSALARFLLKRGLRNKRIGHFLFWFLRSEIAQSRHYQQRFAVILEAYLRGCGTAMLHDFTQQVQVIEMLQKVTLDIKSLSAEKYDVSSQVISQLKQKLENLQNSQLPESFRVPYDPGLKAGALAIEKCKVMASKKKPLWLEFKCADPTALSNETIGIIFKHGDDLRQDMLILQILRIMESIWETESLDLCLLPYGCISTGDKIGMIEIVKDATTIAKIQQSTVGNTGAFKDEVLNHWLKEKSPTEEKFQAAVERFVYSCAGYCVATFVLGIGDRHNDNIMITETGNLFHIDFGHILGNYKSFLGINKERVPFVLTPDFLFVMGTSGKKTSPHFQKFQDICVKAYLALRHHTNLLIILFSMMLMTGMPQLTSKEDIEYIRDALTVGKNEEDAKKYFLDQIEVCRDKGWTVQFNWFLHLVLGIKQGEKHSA

Cc1cccc2cc(Cn3nc(-c4ccc5oc(N)nc5c4)c4c(N)ncnc43)n(-c3ccccc3)c(=O)c12 [Compound 205]
IC50 [1]: < 0.1 µM
IC50 [2]: < 10 µM
IC50 [3]: < 10 µM
IC50 [4]: < 0.1 µM

CCC(Nc1ncnc2[nH]cnc12)c1cc2cccc(C)c2c(=O)n1-c1ccccc1 (centres unmarked) [Compound 211]
IC50 [1]: < 0.1 µM
IC50 [2]: > 10 µM
IC50 [3]: < 10 µM
IC50 [4]: < 0.1 µM

Cc1cccc2cc([C@H](C)Nc3nc(N)ncc3Cl)n(-c3ccccc3)c(=O)c12 [Compound 249]
IC50 [1]: < 0.1 µM
IC50 [2]: > 10 µM
IC50 [3]: < 10 µM
IC50 [4]: < 0.1 µM

COc1cc(F)cc(-c2nn(Cc3cc4cccc(C)c4c(=O)n3-c3ccccc3C)c3ncnc(N)c23)c1 [Compound 181]
IC50 [1]: < 10 µM
IC50 [2]: > 10 µM
IC50 [3]: > 10 µM
IC50 [4]: < 1 µM

Cc1cccc2cc(Cn3nc(-c4cc(O)cc(F)c4)c4c(N)ncnc43)n(-c3ccccc3O)c(=O)c12 [Compound 90]
IC50 [1]: < 0.1 µM
IC50 [2]: < 10 µM
IC50 [3]: < 1 µM
IC50 [4]: < 0.1 µM

Cc1cccc2cc([C@H](C)Nc3ncnc4[nH]cc(C#N)c34)n(-c3ccccc3)c(=O)c12 [Compound 264]
IC50 [1]: < 0.1 µM
IC50 [2]: < 1 µM
IC50 [3]: < 0.1 µM
IC50 [4]: < 0.1 µM

CCC(Nc1ncnc2[nH]cnc12)c1cc2cccc(C)c2c(=O)n1-c1ccc(F)cc1 (centres unmarked) [Compound 223]
IC50 [1]: < 0.1 µM
IC50 [2]: < 10 µM
IC50 [3]: < 10 µM
IC50 [4]: < 0.1 µM

Cc1ccccc1-n1c(Cn2nc(-c3ccc4ncnc(N)c4c3)c3c(N)ncnc32)cc2cccc(C)c2c1=O [Compound 152]
IC50 [1]: < 0.1 µM
IC50 [2]: < 10 µM
IC50 [3]: > 10 µM
IC50 [4]: < 0.1 µM

Cc1ccccc1-n1c(Cn2nc(C(N)=O)c3c(N)ncnc32)cc2cccc(C)c2c1=O [Compound 298]
IC50 [1]: < 1 µM
IC50 [2]: > 10 µM
IC50 [3]: < 10 µM
IC50 [4]: < 1 µM

Cc1cccnc1-n1c(Cn2nc(-c3cc(O)cc(F)c3)c3c(N)ncnc32)cc2ccccc2c1=O [Compound 93]
IC50 [1]: < 1 µM
IC50 [2]: > 10 µM
IC50 [3]: > 10 µM
IC50 [4]: < 0.1 µM

Cc1cccc2cc([C@H](C)NC3CCOCC3)n(-c3ccccc3)c(=O)c12 [Compound 259]
IC50 [1]: > 10 µM
IC50 [2]: > 10 µM
IC50 [3]: > 10 µM
IC50 [4]: > 10 µM

Cc1cccc2cc(Cn3nc(-c4cn[nH]c4)c4c(N)ncnc43)n(-c3ccccc3C(F)(F)F)c(=O)c12 [Compound 214]
IC50 [1]: < 1 µM
IC50 [2]: > 10 µM
IC50 [3]: < 10 µM
IC50 [4]: < 0.1 µM

Cc1cccc2cc(Cn3nc(-c4cc(O)cc(F)c4)c4c(N)ncnc43)n(C3CC3)c(=O)c12 [Compound 101]
IC50 [1]: < 0.1 µM
IC50 [2]: < 1 µM
IC50 [3]: < 0.1 µM
IC50 [4]: < 0.1 µM

Cc1cccc2cc(Cn3nc(-c4cccc(O)c4)c4c(N)ncnc43)n(-c3ccccc3F)c(=O)c12 [Compound 10]
IC50 [1]: < 1 µM
IC50 [2]: > 10 µM
IC50 [3]: > 10 µM
IC50 [4]: < 0.1 µM

Cc1cccc2cc(C(C)Nc3ncnc4[nH]cnc34)n(-c3ccccc3F)c(=O)c12 (centres unmarked) [Compound 167]
IC50 [1]: < 0.1 µM
IC50 [2]: > 10 µM
IC50 [3]: < 10 µM
IC50 [4]: < 0.1 µM

Cc1ccccc1-n1c(Cn2nc(-c3ccc(Cl)c(O)c3)c3c(N)ncnc32)cc2ccccc2c1=O [Compound 52]
IC50 [1]: < 0.1 µM
IC50 [2]: > 10 µM
IC50 [3]: > 10 µM
IC50 [4]: < 0.1 µM

COc1ccccc1-n1c(Cn2nc(-c3cc(O)cc(F)c3)c3c(N)ncnc32)cc2cccc(C)c2c1=O [Compound 84]
IC50 [1]: < 0.1 µM
IC50 [2]: < 10 µM
IC50 [3]: < 10 µM
IC50 [4]: < 0.1 µM

Cc1cccc2cc(Cn3nc(-c4ccn[nH]4)c4c(N)ncnc43)n(-c3ccccc3F)c(=O)c12 [Compound 183]
IC50 [1]: < 10 µM
IC50 [2]: > 10 µM
IC50 [3]: > 10 µM
IC50 [4]: < 1 µM

Cc1cccc2cc([C@H](C)Nc3nc(Cl)nc4[nH]cnc34)n(-c3ccccc3)c(=O)c12 [Compound 244]
IC50 [1]: < 0.1 µM
IC50 [2]: < 10 µM
IC50 [3]: < 10 µM
IC50 [4]: < 0.1 µM

Cc1cccc2cc(C(C)Nc3ncnc4[nH]cnc34)n(-c3cc(F)cc(F)c3)c(=O)c12 (centres unmarked) [Compound 222]
IC50 [1]: < 1 µM
IC50 [2]: > 10 µM
IC50 [3]: > 10 µM
IC50 [4]: < 0.1 µM

Cc1cccc2cc([C@H](C)Nc3cc(N)nc(N)n3)n(C3CC3)c(=O)c12 [Compound 284]
IC50 [1]: < 10 µM
IC50 [2]: > 10 µM
IC50 [3]: > 10 µM
IC50 [4]: < 10 µM

C=C(C)c1nn(Cc2cc3cccc(C)c3c(=O)n2-c2ccccc2)c2ncnc(N)c12 [Compound 316]
IC50 [1]: < 1 µM
IC50 [2]: > 10 µM
IC50 [3]: < 10 µM
IC50 [4]: < 0.1 µM

Cc1cccc2cc(Cn3nc(-c4cccc(O)c4)c4c(N)ncnc43)n(C3CCCC3)c(=O)c12 [Compound 58]
IC50 [1]: < 1 µM
IC50 [2]: > 10 µM
IC50 [3]: < 10 µM
IC50 [4]: < 0.1 µM
